Test results taken from patent US6900210B2, “Pyridinyl, pyrimidinyl and pyrazinyl amides as potassium channel openers” (Bristol-Myers Squibb Company, priority 2002, dated 2005).

What was measured:
[1] = target: T1, mKCNQ2 channels (Mus musculus, UniProt Q9Z351); assay: Whole-cell patch-clamp recordings of mKCNQ2 currents; assay type: cell-based; details: HEK 293 stable cell line expressing mKCNQ2; for EC50: @ −40 mV, room temperature; for Imax (%): maximal current from Hill-type fit
T1 construct: expressed in transfected cells
Experimental: Whole-cell patch-clamp recordings were made from an HEK 293 stable cell line expressing mKCNQ2 channels, maintained in culture for 1-2 days. Patch pipettes had initial resistances of 2.5-4 MQ. Currents were recorded with an EPC9 amplifier (HEKA, Lambrecht, Germany) controlled with software (Pulse, HEKA) run on a standard lab PC. Series resistance compensation was used during current recording, and set at 80%. The series resistance (R) and cell capacitance (C) were determined electronically by subtracting the capacitive currents at the onset and offset of a 5 mV voltage step. The cancellation of wholecell capacitive transients was virtually complete in all cells. Analog current signals were low-pass filtered at 2.9 kHz using a four-pole Bessel filter −3 dB) and stored on a local network server computer at a sampling rate of 1.5 kHz. All recordings were performed at room temperature (20-22° C.). The pipette solution contained (mM): KCl, 150; CaCl2, 2.5; EGTA, 5; MgCl2, 1; HEPES, 10; pH to 7.3 with KOH, and Osmolality of 290-300 mOsm. The extracellular solution contained (mM): NaCl, 140; KCl, 2.5; CaCl2, 2.5; MgCl2, 1; glucose, 10; HEPES, 10; pH to 7.3 with NaOH, and Osmolality of 305-310 mOsm
Concentration response data were generated by measuring the difference in the steady-state amplitude of current in the presence of compound at the end of a 600 ms voltage-clamp step from a holding potential of −80 mV. The concentration-response data were fitted with Hill-type equations: I=Imax/(1+EC50/[A]^nH), where I is the steady-state current at a given concentration of agonist [A]; and Imax, EC50 and nH are parameters estimated from the curve fit. In some cases the concentration-response data were fitted with equations consisting of the sum of two Hill-type components. Current-voltage (IN) relationships for agonist-evoked currents were obtained by performing 600 ms voltage steps (−110 mV to +40 mV) in the absence and presence of agonist.

[2] = tested on: nerve injury-induced tactile allodynia; assay: Chung model of neuropathic pain (Chung surgery and von Frey test); assay type: in vivo, Sprague Dawley rats; details: i.v., rat, von Frey thresholds over 90 min, % MPE (Drug AUC) − % MPE (Vehicle AUC)
Experimental: To test agents for activity against peripheral mononeuropathy nerve injury-induced tactile allodynia, male Sprague Dawley rats (wt. 120-160 g) were surgically prepared with unilateral tight ligation of spinal nerves L5 and L6 following the method of Kim and Chung (Kim S. H., Chung J. M. (1992) Pain, September; 50(3):355-63). After 3-4 weeks recovery, paw withdrawal to light touch was assessed as described by Chaplan et al. (Chaplan S. R., et al., (1994) J. Neurosci Methods, July; 53(1):55-63). In brief, rats are placed in a plastic cage with a wire mesh bottom and allowed to acclimate for 15-30 minutes, until cage exploration and grooming stops. […] After acclimation, baseline von Frey thresholds were assessed for the injured hindpaw at −15 min. […] Following drug administration, von Frey thresholds are measured at 15, 30, 60 and 90 min. Data were analyzed by a 2-way repeated measures analysis of variance followed by Dunnett's test (p<0.05). […]
Reversal of neuropathic pain behavior may be expressed as a percentage (0-100%) of the maximum possible effect, over and above the vehicle effects. […]
For example, a compound which immediately reversed neuropathic pain behavior to normal levels, such that animals only responded to the highest von Frey filament (15 g), and maintained normal levels through out the post-drug testing period (90 min) would be calculated as Δ% MPE=100%.

T1 sequence (Q9Z351 whole entry): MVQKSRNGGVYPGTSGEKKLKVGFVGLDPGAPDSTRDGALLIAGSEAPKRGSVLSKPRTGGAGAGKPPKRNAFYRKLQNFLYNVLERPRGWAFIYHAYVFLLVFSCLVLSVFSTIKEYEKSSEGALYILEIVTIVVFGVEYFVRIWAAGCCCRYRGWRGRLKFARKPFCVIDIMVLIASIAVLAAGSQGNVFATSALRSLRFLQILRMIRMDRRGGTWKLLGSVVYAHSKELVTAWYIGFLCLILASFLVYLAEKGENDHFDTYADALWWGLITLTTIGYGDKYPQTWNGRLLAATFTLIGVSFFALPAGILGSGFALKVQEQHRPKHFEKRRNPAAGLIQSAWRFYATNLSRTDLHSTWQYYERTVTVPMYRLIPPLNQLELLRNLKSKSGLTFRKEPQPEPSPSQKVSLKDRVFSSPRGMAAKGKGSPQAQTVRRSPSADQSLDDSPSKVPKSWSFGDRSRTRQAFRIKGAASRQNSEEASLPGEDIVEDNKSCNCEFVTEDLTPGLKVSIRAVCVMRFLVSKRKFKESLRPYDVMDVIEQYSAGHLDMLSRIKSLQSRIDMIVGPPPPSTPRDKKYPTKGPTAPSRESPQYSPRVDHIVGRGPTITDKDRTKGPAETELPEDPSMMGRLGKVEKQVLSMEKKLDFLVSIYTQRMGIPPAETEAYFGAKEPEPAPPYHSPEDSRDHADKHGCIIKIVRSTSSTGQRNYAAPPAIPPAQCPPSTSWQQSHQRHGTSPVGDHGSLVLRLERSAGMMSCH

Compound	EC50 [1]	Imax (%) [1]	AUC (Δ % MPE) ([2]; 10 mg/kg)	AUC (Δ % MPE) ([2]; 100 mg/kg)
C[C@H](NC(=O)/C=C/c1cc(F)ccc1F)c1cccc(Oc2ccccn2)c1 [Example 9, (S)-3-(2,5-Difluoro-phenyl)-N-{1-[3-(pyridin-2-yl-oxy)-phenyl]-ethyl}-acryl-amide]	0.0012 µM	200%	–	–
C[C@H](NC(=O)/C=C/c1ccccc1F)c1cccc(Oc2cccnc2)c1 [Example 15, (S)-3-(2-Fluoro-phenyl)-N-{1-[3-(py-ridin-3-yloxy)-phen-yl]-ethyl}-acrylamide]	0.198 µM	812%	47 (10 mg/kg, i.v.) Δ % MPE	–
C[C@H](NC(=O)/C=C/c1cc(F)ccc1F)c1cccc(Oc2ccncc2)c1 [Example 45, (S)-3-(2,5-Difluoro-phenyl)-N-{1-[3-(pyridin-4-yl-oxy)-phenyl]-ethyl}-acryl-amide]	0.11 µM	784%	–	–
NCC1(CC(=O)O)CCCCC1 [Gabapentin, gabapentin, reference compound]	–	–	–	50 (100 mg/kg, i.v.) Δ % MPE
(S)-4-Phenyl)-N-[1-(3-py- ridin-3-yl-phenyl)-eth- yl]-butyramide [Example 25]	0.001 µM	172%	–	–
